The subject of assay [1] is symmetric di-methyl arginine in Z-138 cells. Kind of assay: Z-138 Methylation Assay (In Cell Western for symmetric di-methyl arginine and DNA content). It is filed as cell-based. To be noted: Homo sapiens, read-out: ICW EC50. The source says: [formula] [formula] Where top and bottom are the normally allowed to float, but may be fixed at 100 or 0 respectively in a 3-parameter fit. The Hill Coefficient normally allowed to float but may also be fixed at 1 in a 3-parameter fit. Y is the % inhibition and X is the compound concentration.
RPMI/Glutamax medium, penicillin-streptomycin, heat inactivated fetal bovine serum, and D-PBS were purchased from Life Technologies, Grand Island, N.Y., USA. Odyssey blocking buffer, 800CW goat anti-rabbit IgG (H+L) antibody, and Licor Odyssey infrared scanner were purchased from Licor Biosciences, Lincoln, Nebr., USA. Symmetric di-methyl arginine antibody was purchased from EMD Millipore, Billerica, Mass., USA. 16% Paraformaldehyde was purchased from Electron Microscopy Sciences, Hatfield, Pa., USA.
Cell Treatment, in Cell Western (ICW) for Detection of Symmetric Di-Methyl Arginine and DNA Content.
Z-138 cells were seeded in assay medium at a concentration of 50,000 cells per mL to a 384-well cell culture plate with 50 μL per well. Compound (100 nL) from 384 well source plates was added directly to 384 well cell plate. Plates were incubated at 37° C., 5% CO2 for 96 hours. […] Plates were incubated at room temperature for 30 minutes then incubated at 37° C., 5% CO2 for 5 hours. After the incubation, 40 μL per well of 8% paraformaldehyde in PBS (16% paraformaldahyde was diluted to 8% in PBS) was added to each plate and incubated for 30 minutes. […] Next 30 μL per well of Odyssey blocking buffer were added to each plate and incubated 1 hour at room temperature. Blocking buffer was removed and 20 μL per well of primary antibody was added (symmetric di-methyl arginine diluted 1:100 in Odyssey buffer with 0.1% Tween 20 (v/v)) and plates were incubated overnight (16 hours) at 4° C. Plates were washed 5 times with 100 μL per well of wash buffer. Next 20 μL per well of secondary antibody was added (1:200 800CW goat anti-rabbit IgG (H+L) antibody, 1:1000 DRAQ5 (Biostatus limited) in Odyssey buffer with 0.1% Tween 20 (v/v)) and incubated for 1 hour at room temperature. The plates were washed 5 times with 100 μL per well wash buffer then 1 time with 100 μL per well of water. Plates were allowed to dry at room temperature then imaged on the Licor Odyssey machine which measures integrated intensity at 700 nm and 800 nm wavelengths. Both 700 and 800 channels were scanned.
First, the ratio for each well was determined by:
Each plate included fourteen control wells of DMSO only treatment (minimum inhibition) as well as fourteen control wells for maximum inhibition treated with 3 μM of a reference compound (Background wells). The average of the ratio values for each control type was calculated and used to determine the percent inhibition for each test well in the plate. Reference compound was serially diluted three-fold in DMSO for a total of nine test concentrations, beginning at 3 μM. Percent inhibition was determined and IC50 curves were generated using triplicate wells per concentration of compound. Percent Inhibition=100−

For assay [2], the system named is Z-138 cell line. Kind of assay: Z-138 Proliferation Assay (Cell Titer Glo, 5 days). It is filed as cell-based. To be noted: Homo sapiens, 120 h; Z-138 cells, 5 days; read-out: Proliferation EC50. An excerpt:
RPMI/Glutamax medium, penicillin-streptomycin, heat inactivated fetal bovine serum were purchased from Life Technologies, Grand Island, N.Y., USA. V-bottom polypropylene 384-well plates were purchased from Greiner Bio-One, Monroe, N.C., USA. Cell culture 384-well white opaque plates were purchased from Perkin Elmer, Waltham, Mass., USA. Cell-Titer Glo® was purchased from Promega Corporation, Madison, Wis., USA. SpectraMax M5 plate reader was purchased from Molecular Devices LLC, Sunnyvale, Calif., USA.
A compound source plate was prepared by performing triplicate nine-point 3-fold serial dilutions in DMSO, beginning at 10 mM (final top concentration of compound in the assay was 20 μM and the DMSO was 0.2%). A 100 nL aliquot from the compound stock plate was added to its respective well in the cell plate. […] After addition of compounds, assay plates were incubated for 5 days at 37° C., 5% CO2, relative humidity >90%.
Cell viability was measured by quantitation of ATP present in the cell cultures, adding […] of Cell Titer Glo® reagent to the cell plates. Luminescence was read in the SpectraMax M5 microplate reader. The concentration of compound inhibiting cell viability by 50% was determined using a 4-parametric fit of the normalized dose response curves.

SMILES strings stand for the structures.

With `O=C(NCC(O)CN1CCc2ccccc2C1)c1ccc(OC2CCNCC2)cc1` (centres unmarked) [Compound 104], the EC50 in assay [1] was less than 100 nM; in assay [2] it was 1000 to 10000 nM.
Consider `CN1CCC(Oc2ccc(C(=O)NCC(O)CN3CCc4ccccc4C3)cc2)CC1` (centres unmarked) [Compound 105], for which the EC50 in assay [1] was less than 100 nM; in assay [2] it was 1000 to 10000 nM.
`CC(C)N1CCC(Oc2ccc(C(=O)NCC(O)CN3CCc4ccccc4C3)cc2)CC1` (centres unmarked) [Compound 106]: the EC50 is less than 100 nM in assay [1] and 101 to 1000 nM in assay [2].
For `CC(=O)N1CCC(Oc2ccc(C(=O)NCC(O)CN3CCc4ccccc4C3)cc2)CC1` (centres unmarked) [Compound 107] the same measures were less than 100 nM and 101 to 1000 nM.
For `CS(=O)(=O)N1CCC(Oc2ccc(C(=O)NCC(O)CN3CCc4ccccc4C3)cc2)CC1` (centres unmarked) [Compound 108], in that order: less than 100 nM and 101 to 1000 nM.
For `O=C(NCC(O)CN1CCc2ccccc2C1)c1ccc(OC2CCN(CC(F)(F)F)CC2)cc1` (centres unmarked) [Compound 109], in that order: less than 100 nM and 101 to 1000 nM.
For the compound `O=C(NCC(O)CN1CCc2ccccc2C1)c1ccc(-n2cncn2)cc1` (centres unmarked) [Compound 110], the figures for the EC50 in assay [1] and in assay [2] were less than 100 nM and 1000 to 10000 nM, respectively.
`CN(C[C@H](O)CN1CCc2ccccc2C1)C(=O)c1cccc(NC2CCOCC2)c1` [Compound 111]: the EC50 is 101 to 1000 nM in assay [1] and 1000 to 10000 nM in assay [2].
As to `O=C(NCC(O)CN1CCc2ccccc2C1)c1cn[nH]c1-c1ccccc1` (centres unmarked) [Compound 112], the EC50 in assay [1] was 1000 to 10000 nM; in assay [2], greater than 20000 nM.
As for `O=C(NCC(O)CN1CCc2ccccc2C1)c1cccc(CN2CCN(CCO)CC2)c1` (centres unmarked) [Compound 113], the EC50 was in the range of 101 to 1000 nM in assay [1] and 10000 to 50000 nM in assay [2].
`COCCN1CCN(Cc2cccc(C(=O)NCC(O)CN3CCc4ccccc4C3)c2)CC1` (centres unmarked) [Compound 114]: the EC50 was 101 to 1000 nM in assay [1] and 10000 to 50000 nM in assay [2].
For `CN1CCN(Cc2cccc(C(=O)NCC(O)CN3CCc4ccccc4C3)c2)C(CO)C1` (centres unmarked) [Compound 115] the same measures were 101 to 1000 nM and greater than 20000 nM.
For `NC(=O)CNCc1cccc(C(=O)NCC(O)CN2CCc3ccccc3C2)c1` (centres unmarked) [Compound 116], in that order: 101 to 1000 nM and greater than 20000 nM.
For `CNC(=O)CNCc1cccc(C(=O)NCC(O)CN2CCc3ccccc3C2)c1` (centres unmarked) [Compound 117] the same measures were 101 to 1000 nM and greater than 20000 nM.
Regarding `CN(C)C(=O)CNCc1cccc(C(=O)NCC(O)CN2CCc3ccccc3C2)c1` (centres unmarked) [Compound 118], the EC50 in assay [1] was 101 to 1000 nM; in assay [2], greater than 20000 nM.
For the compound `O=C(NCC(O)CN1CCc2ccccc2C1)c1cccc(OC2CCNC2)c1` (centres unmarked) [Compound 119], the EC50 in assay [1] was 101 to 1000 nM; in assay [2], 1000 to 10000 nM.
For `CC(=O)N1CCC(Nc2cccc(C(=O)NCC(O)CN3CCc4ccccc4C3)c2)C1` (centres unmarked) [Compound 121], in that order: less than 100 nM and 101 to 1000 nM.
For `CS(=O)(=O)N1CCC(Nc2cccc(C(=O)NCC(O)CN3CCc4ccccc4C3)c2)C1` (centres unmarked) [Compound 122] the same measures were less than 100 nM and 101 to 1000 nM.
Turning to `CN1CCC(Nc2cccc(C(=O)NCC(O)CN3CCc4ccccc4C3)c2)CC1` (centres unmarked) [Compound 123], the EC50 in assay [1] was 101 to 1000 nM; in assay [2], 1000 to 10000 nM.
For the compound `CC(=O)N1CCC(Nc2cccc(C(=O)NCC(O)CN3CCc4ccccc4C3)c2)CC1` (centres unmarked) [Compound 124], the EC50 in assay [1] and in assay [2] was less than 100 nM in each case.
In the case of `CS(=O)(=O)N1CCC(Nc2cccc(C(=O)NCC(O)CN3CCc4ccccc4C3)c2)CC1` (centres unmarked) [Compound 125], the EC50 is less than 100 nM in assay [1] and 101 to 1000 nM in assay [2].
`O=C(NCC(O)CN1CCc2ccccc2C1)c1cccc(NC2CCN(CC(F)(F)F)CC2)c1` (centres unmarked) [Compound 126]: the values for the EC50 in assay [1] and in assay [2] were less than 100 nM and 1000 to 10000 nM, respectively.
For `CC(=O)N1CCC(Nc2ccc(C(=O)NCC(O)CN3CCc4ccccc4C3)cc2)CC1` (centres unmarked) [Compound 127], in that order: less than 100 nM and 1000 to 10000 nM.
For `O=C(NCC(O)CN1CCc2ccccc2C1)c1ccc(NC2CCN(CC(F)(F)F)CC2)cc1` (centres unmarked) [Compound 128] the same measures were less than 100 nM and 1000 to 10000 nM.
`O=C(NCC(O)CN1CCc2ccccc2C1)c1ccc(NC2CCOC2)cc1` (centres unmarked) [Compound 129]: the EC50 in assay [1] was less than 100 nM; in assay [2], 1000 to 10000 nM.
For `O=C(NCC(O)CN1CCc2ccccc2C1)c1cccc(-n2cncn2)c1` (centres unmarked) [Compound 130] the same measures were 101 to 1000 nM and 10000 to 50000 nM.
For `CN1CCC(N(C)c2cccc(C(=O)NCC(O)CN3CCc4ccccc4C3)c2)CC1` (centres unmarked) [Compound 131] the same measures were 101 to 1000 nM and 1000 to 10000 nM.
In the case of `CN1CCC(N(C)c2cccc(C(=O)NCC(O)CN3CCc4ccccc4C3)c2)C1` (centres unmarked) [Compound 132], the EC50 in assay [1] is 101 to 1000 nM; in assay [2] it was 1000 to 10000 nM.
For `O=C(NCC(O)CN1CCc2ccccc2C1)c1cccc(OCCN2CCOCC2)c1` (centres unmarked) [Compound 133], in that order: less than 100 nM and 1000 to 10000 nM.
For `CC(C)N1CCC(Oc2cccc(C(=O)NCC(O)CN3CCc4ccccc4C3)c2)C1` (centres unmarked) [Compound 135], in that order: less than 100 nM and 10000 to 50000 nM.
For `CC(=O)N1CCC(Oc2cccc(C(=O)NCC(O)CN3CCc4ccccc4C3)c2)C1` (centres unmarked) [Compound 136] the same measures were less than 100 nM and 1000 to 10000 nM.
Consider `O=C(NCC(O)CN1CCc2ccccc2C1)c1cccc(OC2CCN(CC(F)(F)F)C2)c1` (centres unmarked) [Compound 137], for which the EC50 is less than 100 nM in assay [1] and 1000 to 10000 nM in assay [2].
For `O=C(NCC(O)CN1CCc2ccccc2C1)c1ccc(NC2CCNCC2)cc1` (centres unmarked) [Compound 138] the same measures were 101 to 1000 nM and 10000 to 50000 nM.
In the case of `CN1CCC(Nc2ccc(C(=O)NCC(O)CN3CCc4ccccc4C3)cc2)CC1` (centres unmarked) [Compound 139], the EC50 in assay [1] was less than 100 nM; in assay [2] it was 1000 to 10000 nM.
For `CC(C)N1CCC(Nc2ccc(C(=O)NCC(O)CN3CCc4ccccc4C3)cc2)CC1` (centres unmarked) [Compound 140], in that order: less than 100 nM and 1000 to 10000 nM.
For `CS(=O)(=O)N1CCC(Nc2ccc(C(=O)NCC(O)CN3CCc4ccccc4C3)cc2)CC1` (centres unmarked) [Compound 141], in that order: less than 100 nM and 1000 to 10000 nM.
For the compound `O=C(NCC(O)CN1CCc2ccccc2C1)c1ccc(CN2CCNCC2)cc1` (centres unmarked) [Compound 143], the EC50 in assay [1] was less than 100 nM; in assay [2], 1000 to 10000 nM.
For `CN(c1ccc(C(=O)NCC(O)CN2CCc3ccccc3C2)cc1)C1CCOC1` (centres unmarked) [Compound 144], in that order: less than 100 nM and 1000 to 10000 nM.
For `O=C(NCC(O)CN1CCc2ccccc2C1)c1ccc(CN2CCOCC2)cc1` (centres unmarked) [Compound 145] the same measures were less than 100 nM and 1000 to 10000 nM.
On to `COCCCOc1ccc(C(=O)NCC(O)CN2CCc3ccccc3C2)cc1` (centres unmarked) [Compound 146], for which the EC50 in assay [1] was less than 100 nM; in assay [2], 1000 to 10000 nM.
For `NCCN1CCN(Cc2cccc(C(=O)NCC(O)CN3CCc4ccccc4C3)c2)CC1` (centres unmarked) [Compound 147], in that order: 101 to 1000 nM and 10000 to 50000 nM.
For `O=C(NCC(O)CN1CCc2ccccc2C1)c1ccn[nH]1` (centres unmarked) [Compound 148] the same measures were 1000 to 10000 nM and greater than 20000 nM.
For `Cn1ccc(C(=O)NCC(O)CN2CCc3ccccc3C2)n1` (centres unmarked) [Compound 149] the same measures were 1000 to 10000 nM and greater than 20000 nM.

The values above are taken from US10307413B2, “Tetrahydro- and dihydro-isoquinoline PRMT5 inhibitors and uses thereof” (Epizyme, Inc., priority 2013, dated 2019).
